ChEMBL document CHEMBL1201862, “PubChem BioAssay data set” (2004)
Calls of active or inactive are those of the source.

How the values were obtained:
[1] = molecular target: T1, Protein skinhead-1 (Caenorhabditis elegans, UniProt P34707); assay type: functional
T1 sequence (P34707 whole entry): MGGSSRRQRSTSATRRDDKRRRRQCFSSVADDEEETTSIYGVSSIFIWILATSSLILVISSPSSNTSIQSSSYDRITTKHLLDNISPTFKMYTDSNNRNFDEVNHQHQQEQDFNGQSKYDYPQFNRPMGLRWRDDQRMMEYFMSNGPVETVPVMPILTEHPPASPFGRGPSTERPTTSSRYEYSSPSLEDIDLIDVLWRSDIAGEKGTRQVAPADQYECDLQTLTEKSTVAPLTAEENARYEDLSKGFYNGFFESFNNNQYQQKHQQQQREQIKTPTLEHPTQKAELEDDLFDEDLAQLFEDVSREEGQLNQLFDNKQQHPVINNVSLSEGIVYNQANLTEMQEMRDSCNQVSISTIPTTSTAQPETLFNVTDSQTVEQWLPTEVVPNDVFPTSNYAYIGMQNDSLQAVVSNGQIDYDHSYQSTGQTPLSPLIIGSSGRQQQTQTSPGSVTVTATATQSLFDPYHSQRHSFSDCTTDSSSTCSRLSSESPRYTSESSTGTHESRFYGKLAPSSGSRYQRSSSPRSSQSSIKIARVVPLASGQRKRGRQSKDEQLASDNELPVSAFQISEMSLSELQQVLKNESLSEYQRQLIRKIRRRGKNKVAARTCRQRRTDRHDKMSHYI

[2] = molecular target: T2, Long-chain-fatty-acid--AMP ligase FadD28 (Mycobacterium tuberculosis, UniProt P9WQ59); assay: Fluorescence polarization aasay to screen for inhibitors that compete for the binding of FadD28 to a bisubstrate Measured in Biochemical System Using Plate Reader - 2147-01_Inhibitor_Dose_CherryPick_Activity.; assay type: functional, Mycobacterium tuberculosis H37Rv
T2 sequence (P9WQ59 whole entry): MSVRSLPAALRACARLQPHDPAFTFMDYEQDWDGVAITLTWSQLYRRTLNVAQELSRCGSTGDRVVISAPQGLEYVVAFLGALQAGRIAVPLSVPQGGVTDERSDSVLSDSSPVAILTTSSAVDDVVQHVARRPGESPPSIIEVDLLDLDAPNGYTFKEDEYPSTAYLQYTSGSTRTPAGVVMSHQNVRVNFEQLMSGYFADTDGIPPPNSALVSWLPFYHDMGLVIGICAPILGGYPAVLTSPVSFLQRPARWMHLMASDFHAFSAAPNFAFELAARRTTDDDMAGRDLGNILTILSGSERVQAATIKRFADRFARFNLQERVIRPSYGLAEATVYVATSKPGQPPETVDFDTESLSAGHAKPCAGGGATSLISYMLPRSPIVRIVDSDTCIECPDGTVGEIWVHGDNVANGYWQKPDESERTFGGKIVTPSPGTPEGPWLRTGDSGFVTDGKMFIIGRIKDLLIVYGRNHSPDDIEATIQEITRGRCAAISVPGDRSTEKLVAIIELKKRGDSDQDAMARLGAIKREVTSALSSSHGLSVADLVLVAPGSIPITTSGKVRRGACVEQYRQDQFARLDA

[3] = molecular target: T3, Fibrinogen beta chain (Homo sapiens, UniProt P02675); assay: Fluorescence polarization-based biochemical high throughput dose response assay to identify inhibitors that disrupt the binding of a cyclic peptide (Tn6) to the fibrin proteolytic product D-Dimer and fragment E complex [DD(E )].
T3 sequence (P02675 whole entry): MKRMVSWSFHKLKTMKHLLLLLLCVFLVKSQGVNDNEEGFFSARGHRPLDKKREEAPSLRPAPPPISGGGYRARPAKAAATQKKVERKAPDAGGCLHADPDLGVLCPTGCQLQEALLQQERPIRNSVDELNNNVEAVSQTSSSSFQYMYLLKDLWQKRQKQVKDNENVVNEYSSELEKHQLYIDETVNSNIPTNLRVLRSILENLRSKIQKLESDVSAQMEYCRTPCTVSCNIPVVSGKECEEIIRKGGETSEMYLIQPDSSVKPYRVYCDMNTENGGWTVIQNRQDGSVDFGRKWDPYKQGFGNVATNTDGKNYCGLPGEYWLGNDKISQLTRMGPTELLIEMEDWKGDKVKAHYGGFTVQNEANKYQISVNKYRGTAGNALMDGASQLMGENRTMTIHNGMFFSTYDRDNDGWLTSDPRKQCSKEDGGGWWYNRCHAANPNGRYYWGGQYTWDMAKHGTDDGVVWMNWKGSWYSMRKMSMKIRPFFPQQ

[4] = molecular target: T3, Fibrinogen beta chain; assay: Fluorescence polarization-based biochemical high throughput dose response assay to identify inhibitors that disrupt the binding of a cyclic peptide (Tn7) to the fibrin proteolytic product D-Dimer and fragment E complex [DD(E )].
[5] = Trypanosoma cruzi growth suppression in host cells – NIH3T3 host cells, beta-gal luminescence, confirmation (AID 2044); assay type: functional, cell-based;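 note: intracellular parasites grown in NIH/3T3 mouse fibroblasts as host cells; luminescent beta-galactosidase reporter signal from transgenic T. cruzi replicating inside host cells; inhibitors lower the luminescence signal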
[6] = NIH3T3 cell viability loss – ATP luminescence, mouse fibroblasts, counter-screen, dose response (AID 2010); assay type: functional, cell-based;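 note: cells exposed to compound for about 90 hours before reading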
[7] = THP-1 cell cytotoxicity, dose response, cytotoxicity control for non-replicating M. tuberculosis project (AID 489025); assay type: functional
[8] = Vero E6 cell cytotoxicity, dose response, cytotoxicity control for non-replicating M. tuberculosis project, secondary assay (AID 492998); assay type: functional, VeroE6; details: Vero C1008
[9] = molecular target: T4, Microphthalmia-associated transcription factor (Homo sapiens, UniProt O75030); assay: reducers of TRPM1 reporter luminescence, concentration series – cell-based, SK-MEL-5, cherry-picked, set 3, MITF inhibitor project, dose response (AID 493073); assay type: functional;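 note: SK-MEL-5 melanoma cells with luciferase driven by the MITF target TRPM1 promoter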
T4 sequence (O75030 whole entry): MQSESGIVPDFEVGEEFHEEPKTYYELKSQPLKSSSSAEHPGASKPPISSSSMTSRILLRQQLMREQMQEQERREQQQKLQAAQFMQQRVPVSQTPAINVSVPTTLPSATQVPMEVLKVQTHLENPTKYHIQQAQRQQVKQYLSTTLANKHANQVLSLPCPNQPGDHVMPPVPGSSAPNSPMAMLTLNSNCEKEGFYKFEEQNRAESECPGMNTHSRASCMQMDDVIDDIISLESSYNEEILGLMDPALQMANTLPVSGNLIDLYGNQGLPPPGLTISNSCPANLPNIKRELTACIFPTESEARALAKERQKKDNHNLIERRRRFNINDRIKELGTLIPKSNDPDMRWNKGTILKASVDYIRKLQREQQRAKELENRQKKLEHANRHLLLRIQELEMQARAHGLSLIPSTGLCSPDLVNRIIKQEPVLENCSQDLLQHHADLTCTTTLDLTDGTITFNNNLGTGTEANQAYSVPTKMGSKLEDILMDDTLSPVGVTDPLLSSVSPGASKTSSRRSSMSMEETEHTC

[10] = cytotoxicity in MITF-independent A375 cells – cell-based, CellTiter-Glo luminescence, dry powder, set 4, counter-screen for MITF inhibitor project, dose response (AID 624364); assay type: functional; details: A-375;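 note: A375 melanoma cells are MITF independent so this is a counter screen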
[11] = viability loss in MITF-independent A375 cells – cell-based, CellTiter-Glo luminescence, dry powder, set 2, counter-screen for MITF inhibitor project, dose response (AID 624489); assay type: functional; details: A-375;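 note: actives are compounds lowering A375 viability meaning general cytotoxicity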
[12] = molecular target: fMet-Leu-Phe receptor (Homo sapiens, UniProt P21462); assay: formyl peptide receptor binders – dose response (AID 519); assay type: functional
[13] = viability loss in THP-1 monocytes – THP-1 cells, cytotoxicity control for Vif-APOBEC3G degradation inhibitor project, dose response (AID 1117359); assay type: functional; details: THP-1
[14] = HIV-1 Vif–A3G interaction blockers – biochemical, TR-FRET, GST-Vif 1-94, biotin-A3G peptide, dose response retest, primary screen (AID 1117319); assay type: functional;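 note: TR-FRET signal of purified GST-Vif binding a biotinylated A3G peptide; inhibitors lower the FRET signal by blocking Vif and A3G binding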
[15] = potency of ADAM10 substrate cleavage blockers – biochemical, QFRET, dose response (AID 743254);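 note: ADAM10 enzyme with the DM2 quenched FRET peptide as substrate; EDANS fluorescence gain as the protease cuts the substrate; inhibitor potency against ADAM10 proteolytic activity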
[16] = molecular target: Disintegrin and metalloproteinase domain-containing protein 17 (Homo sapiens, UniProt P78536); assay: inhibition of ADAM17 substrate cleavage – biochemical, quenched FRET substrate, counter-screen for ADAM10 exosite inhibitor project, dose response (AID 743253)
[17] = molecular target: Paired box protein Pax-8 (Homo sapiens, UniProt Q06710); assay: PAX8 transcriptional activity inhibition in RMG-I – RMG-I cells, luciferase, cherry-pick, dose response (AID 687027); assay type: functional, cell-based;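 note: luciferase reporter driven by Pax8 target thyroperoxidase promoter measured by SteadyGlo luminescence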
[18] = A2780 cell killing – plate reader, dry powder samples, cytotoxicity control, dose response (AID 743046); assay type: functional, cell-based
[19] = OVCAR-3 cell viability loss – plate reader, dry powder samples, PAX8 inhibitor project, dose response (AID 743044); assay type: functional, cell-based
[20] = general cell-killing toxicity readout – plate reader, dry powder samples, cytotoxicity control for PAX8 inhibitor project, dose response (AID 743021); assay type: functional, cell-based
[21] = OVCAR8 cell viability loss – plate reader, dry powder samples, PAX8 project, dose response (AID 743197); assay type: functional, cell-based; details: OVCAR-8
[22] = viability of PTEN-deleted HCT116 cells – cell-based, HCT116 PTEN knockout, dose response (AID 1047); assay type: functional;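 note: HCT116 colon tumor cells with PTEN knocked out; cells exposed to compound for 60 hours before readout; potency for loss of cell viability measured by luminescence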
[23] = viability of HCT116 lacking mutant beta-catenin – cell-based, human colon tumor, dose response (AID 1045); assay type: functional;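 note: HCT116 colon tumor cells with beta catenin knocked out; cells exposed to compound for 60 hours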
[24] = Dd2 parasite growth inhibition in erythrocytes – SYBR Green, dry powder samples, set 9, dose response (AID 1159568); assay type: functional, cell-based

Sequence of Disintegrin and metalloproteinase domain-containing protein 17 (P78536 whole entry, the tested form may be a part): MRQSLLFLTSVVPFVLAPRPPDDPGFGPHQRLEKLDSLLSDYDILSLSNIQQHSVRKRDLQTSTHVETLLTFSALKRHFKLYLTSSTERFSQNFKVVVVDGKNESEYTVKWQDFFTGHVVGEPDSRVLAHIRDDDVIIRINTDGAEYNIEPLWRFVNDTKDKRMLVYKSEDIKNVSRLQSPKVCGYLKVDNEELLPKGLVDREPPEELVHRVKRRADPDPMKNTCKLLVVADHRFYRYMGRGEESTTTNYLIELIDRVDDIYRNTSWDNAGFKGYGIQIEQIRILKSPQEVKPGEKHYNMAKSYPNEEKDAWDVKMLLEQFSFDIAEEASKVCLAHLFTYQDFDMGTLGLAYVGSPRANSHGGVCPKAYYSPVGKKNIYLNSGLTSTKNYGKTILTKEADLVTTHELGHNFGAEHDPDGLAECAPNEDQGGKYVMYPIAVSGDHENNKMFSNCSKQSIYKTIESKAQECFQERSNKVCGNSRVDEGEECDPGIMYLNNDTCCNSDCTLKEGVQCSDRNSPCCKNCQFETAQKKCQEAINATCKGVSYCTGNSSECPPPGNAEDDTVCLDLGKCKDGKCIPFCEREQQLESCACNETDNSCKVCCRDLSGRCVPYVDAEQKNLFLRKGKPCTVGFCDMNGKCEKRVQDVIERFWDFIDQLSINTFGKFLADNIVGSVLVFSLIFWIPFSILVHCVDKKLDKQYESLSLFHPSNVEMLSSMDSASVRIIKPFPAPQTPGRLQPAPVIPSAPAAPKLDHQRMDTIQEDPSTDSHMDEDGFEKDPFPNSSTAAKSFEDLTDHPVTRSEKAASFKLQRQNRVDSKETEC
Sequence of fMet-Leu-Phe receptor (P21462 whole entry): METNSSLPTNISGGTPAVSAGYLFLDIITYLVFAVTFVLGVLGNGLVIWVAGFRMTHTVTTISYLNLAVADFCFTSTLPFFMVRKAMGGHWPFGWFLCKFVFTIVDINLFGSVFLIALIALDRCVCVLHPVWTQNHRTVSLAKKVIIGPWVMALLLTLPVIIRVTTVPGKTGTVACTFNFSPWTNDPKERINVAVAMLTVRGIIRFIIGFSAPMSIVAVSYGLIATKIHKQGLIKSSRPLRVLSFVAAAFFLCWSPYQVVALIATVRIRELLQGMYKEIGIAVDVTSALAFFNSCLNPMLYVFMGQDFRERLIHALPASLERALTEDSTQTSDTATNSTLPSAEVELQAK
Sequence of Paired box protein Pax-8 (Q06710 whole entry): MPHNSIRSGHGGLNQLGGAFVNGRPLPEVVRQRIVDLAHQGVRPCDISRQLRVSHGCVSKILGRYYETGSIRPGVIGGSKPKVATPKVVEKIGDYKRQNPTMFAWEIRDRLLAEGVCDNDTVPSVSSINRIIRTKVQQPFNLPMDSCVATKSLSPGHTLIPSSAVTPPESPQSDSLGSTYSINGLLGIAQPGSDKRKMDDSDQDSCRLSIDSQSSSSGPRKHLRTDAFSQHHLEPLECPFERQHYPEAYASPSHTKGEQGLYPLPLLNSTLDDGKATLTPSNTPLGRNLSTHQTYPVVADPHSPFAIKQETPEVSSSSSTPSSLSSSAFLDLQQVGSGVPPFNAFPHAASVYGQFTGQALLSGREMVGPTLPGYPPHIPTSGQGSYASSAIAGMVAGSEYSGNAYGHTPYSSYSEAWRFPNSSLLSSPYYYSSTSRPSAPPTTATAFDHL

SMILES: CCn1c(CSc2n[nH]c(N)n2)nc2cc(C(=O)O)ccc21
- IC50 [1]: > 100 µM (inactive)
- AC50 [2]: 79 µM (active)
- IC50 [3]: 8.92 µM (active)
- IC50 [4]: > 83.3 µM (inactive)

SMILES: CN(c1ccccc1)S(=O)(=O)c1ccc(Cl)c(C(=O)Nc2ccc(-c3nc4ccccc4[nH]3)cc2)c1
- EC50 [5]: 1.68 µM (active)
- EC50 [6]: > 30 µM (not active)
- IC50 [3]: > 83.3 µM (inactive)
- IC50 [4]: > 83.3 µM (inactive)

SMILES: COc1ccc(S(=O)(=O)N(C(C)=O)c2ccc(OC(C)=O)c3ccccc23)cc1[N+](=O)[O-]
- CC50 [7]: 10.7 µM (active)
- CC50 [8]: > 20 µM (active)
- AC50 [9]: 11.6 µM (active)
- AC50 [10]: 55.5 µM (active)
- AC50 [11]: 29.1 µM (active)

SMILES: COc1ccc(CN(C(=O)c2ccccc2OC)C2CCS(=O)(=O)C2)cc1 (configuration not stated)
- Ki [12]: > 66.7 µM (inactive)

SMILES: CC1C(=O)N2CCCc3cc(NC(=O)C(=O)NCc4cccnc4)cc1c32 (configuration not stated)
- CC50 [13]: > 40 µM (active)

SMILES: CC(C)Cc1ccc(C(C)C(=N)N)cc1 (configuration not stated)
- CC50 [13]: > 40 µM (active)
- IC50 [14]: > 100 µM (active)

SMILES: CC1(Cc2ccc(C(F)(F)F)o2)C(=O)Nc2cc(-c3ccc(F)cc3F)ccc21 (configuration not stated)
- IC50 [15]: 15.6 µM (inactive)
- IC50 [16]: > 69.5 µM (inactive)

SMILES: C[C@H]1CCCCO[C@H](CN(C)S(=O)(=O)c2ccccc2)[C@@H](C)CN([C@@H](C)CO)C(=O)c2cc(NS(=O)(=O)c3ccc(Cl)cc3)ccc2O1
- AC50 [17]: 7.4 µM (active)
- AC50 [18]: 19.1 µM (active)
- AC50 [19]: 58.4 µM (active)
- AC50 [20]: 43.2 µM (active)
- AC50 [21]: > 70 µM (inactive)

SMILES: CCN1CCN(C2=C(NS(=O)(=O)c3cccs3)C(=O)c3ccccc3C2=O)CC1
- AC50 [10]: > 70 µM (inactive)
- AC50 [11]: 56.1 µM (active)

SMILES: O=S(=O)(N/N=C/c1cn(Cc2ccccc2)c2ccccc12)c1ccccc1
- EC50 [22]: 3.27 µM (active)
- EC50 [23]: 35.6 µM (active)
- IC50 [15]: 25.1 µM (inactive)
- IC50 [16]: > 69.5 µM (inactive)

SMILES: CN(C)C(=O)c1ccc(-c2ccc([C@@H]3[C@H]4CN(C(=O)CC5CC5)CC(=O)N4[C@H]3CO)cc2)cc1
- AC50 [24]: 14.4 µM (active)

SMILES: Cc1ccccc1-c1ccc2c(c1)O[C@H](CN(C)C(=O)Nc1ccc(C(F)(F)F)cc1)[C@@H](C)CN([C@@H](C)CO)S2(=O)=O
- AC50 [24]: 5.32 µM (active)
